Assay results from patent US12552748B2, “Pyridine (thio)amides as fungicidal compounds” (Bayer Aktiengesellschaft, priority 2020, dated 2026).

Tests used:
Botrytis cinerea = assay: In vivo preventive test on Botrytis cinerea (grey mould); conditions: 500 ppm of active ingredient, preventive spray on gherkin or cabbage, evaluated 4 to 5 days after inoculation, 0% = control plants, 100% = no disease, read-out: efficacy
Procedure: (§1) B-2. In Vivo Preventive Test on Botrytis cinerea (Grey Mould [table] The active ingredients were made soluble and homogenized in a mixture of Dimethyl sulfoxide/Acetone/Tween® 80 and then diluted in water to the desired concentration. The young plants of gherkin or cabbage were treated by spraying the active ingredient prepared as described above. Control plants were treated only with an aqueous solution of Acetone/Dimethyl sulfoxide/Tween® 80. After 24 hours, the plants were contaminated by spraying the leaves with an aqueous suspension of Botrytis cinerea spores.

Sphaerotheca fuliginea = assay: In vivo preventive test on Sphaerotheca fuliginea (powdery mildew on cucurbits); conditions: Podosphaera fuliginea, 192 h; 500 ppm of active ingredient; preventive spray on gherkin; evaluated 8 days after inoculation; 0% = control plants, 100% = no disease; read-out: efficacy
Procedure: as §1, with “B-4.” for “B-2.”, “Sphaerotheca fuliginea (Powdery Mildew on Cucurbits” for “Botrytis cinerea (Grey Mould”, “gherkin” for “gherkin or cabbage”, “Sphaerotheca fuliginea” for “Botrytis cinerea”

physchem = assay type: physicochemical
In short: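 Reversed-phase HPLC per EEC directive 79/831 Annex V.A8, calibrated with straight-chain alkan-2-ones (C3–C16) of known Log P via linear interpolation of retention times. Lambda-max from UV spectra 200–400 nm at chromatographic peaks.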

Alternaria alternata = Alternaria alternata in vitro cell test; assay type: cell-based; conditions: 120 h, 20 ppm of active ingredient, liquid culture with spores, 5 days incubation, spectrometric measurement of mycelium growth, read-out: efficacy (inhibition of fungal growth)
Procedure: (§2) B-6. Alternaria alternata In Vitro Cell Test • Solvent: DMSO • Culture medium: 14.6 g anhydrous D-glucose (VWR), 7.1 g Mycological Peptone (Oxoid), 1.4 g granulated Yeast Extract (Merck), QSP 1 liter • Inoculum: spores suspension Fungicides were solubilized in DMSO and the solution used to prepare the required range of concentrations. […] A spore suspension of A. alternata was prepared and diluted to the desired spore density. Fungicides were evaluated for their ability to inhibit spore germination and mycelium growth in liquid culture assay. The compounds were added in the desired concentration to the culture medium with spores. After 5 days incubation, fungi-toxicity of compounds was determined by spectrometric measurement of mycelium growth. Inhibition of fungal growth was determined by comparing the absorbance values in wells containing the fungicides with the absorbance in control wells without fungicides.

[1] = test system: Colletotrichum lindemuthianum; assay: Colletotrichum lindemuthianum in vitro cell test; assay type: cell-based; conditions: 144 h, read-out: efficacy (inhibition of fungal growth)
Procedure: B-8. Colletotrichum lindemuthianum In Vitro Cell Test
• Solvent: DMSO • Culture medium: 14.6 g anhydrous D-glucose (VWR), 7.1 g Mycological Peptone (Oxoid), 1.4 g granulated Yeast Extract (Merck), QSP 1 liter • Inoculum: spores suspension
Fungicides were solubilized in DMSO and the solution used to prepare the required range of concentrations. The final concentration of DMSO used in the assay was ≤1%.
A spore suspension of C. lindemuthianum was prepared and diluted to the desired spore density.
Fungicides were evaluated for their ability to inhibit spores germination and mycelium growth in liquid culture assay. The compounds were added in the desired concentration to the culture medium with spores. After 6 days incubation, fungi-toxicity of compounds was determined by spectrometric measurement of mycelium growth. Inhibition of fungal growth was determined by comparing the absorbance values in wells containing the fungicides with the absorbance in control wells without fungicides.

Pyricularia oryzae = assay: microbe, parasite or virus in culture; assay type: cell-based; conditions: 120 h, read-out: efficacy (inhibition of fungal growth)
Pyrenophora teres = Pyrenophora teres in vitro cell test; assay type: cell-based; conditions: 144 h, 20 ppm of active ingredient, liquid culture with spores, 6 days incubation, spectrometric measurement of mycelium growth, read-out: efficacy (inhibition of fungal growth)
Procedure: as §2, with “B-9. Pyrenophora Teres In” for “B-6. Alternaria alternata In”, “Inoculum: spore” for “Inoculum: spores”, “of P. teres” for “of A. alternata”, “After 6” for “After 5”

Row | SMILES | pest or weed control at 500 ppm (Botrytis cinerea) [%] | pest or weed control at 500 ppm (Sphaerotheca fuliginea) [%] | chromatographic logP (physchem) | inhibition at 20 ppm (Alternaria alternata) [%] | inhibition at 20 ppm [1] [%] | inhibition at 20 ppm (Pyricularia oryzae) [%] | inhibition at 20 ppm (Pyrenophora teres) [%]
1 | CC(=O)c1cc(C(=O)NCCc2ccc(C)cc2C)c(Oc2cccc(C(F)(F)F)c2)cn1 [Compound I-087, 2-acetyl-N-[2-(2,4-dimethylphenyl)ethyl]-5-[3-(trifluoromethyl)phenoxy]pyridine-4-carboxamide] | 90 to 100 | 80 to 89 | 4.47 | 90 to 100 | 80 to 89 | 80 to 89 | 
2 | O=C(NCC(F)(F)c1ccc(C2CCCC2)cc1Cl)c1cc(Cl)ncc1Oc1cccc(C(F)F)c1 [Compound I-124, 2-chloro-N-[2-(2-chloro-4-cyclopentyl-phenyl)-2,2-difluoro-ethyl]-5-[3-(difluoromethyl)phenoxy]pyridine-4-carboxamide] |  |  | 5.5 |  |  |  | 90 to 100
3 | Cc1ccc(CCNC(=O)c2cc(Cl)ncc2Oc2ccc3c(c2)OC(F)(F)O3)c(C)c1 [Compound I-140, 2-chloro-5-[(2,2-difluoro-1,3-benzodioxol-5-yl)oxy]-N-[2-(2,4-dimethylphenyl)ethyl]pyridine-4-carboxamide] | 70 to 79 | 90 to 100 | 4.82 |  |  |  | 90 to 100
4 | Cc1ccc(C(F)(F)CNC(=O)c2c(Oc3cccc(C(F)(F)F)c3)cnc(Cl)c2-n2cccn2)c(C)c1 [Compound I-167, 2-chloro-N-[2-(2,4-dimethylphenyl)-2,2-difluoroethyl]-3-(1H-pyrazol-1-yl)-5-[3-(trifluoromethyl)phenoxy]pyridine-4-carboxamide] | 90 to 100 | 90 to 100 | 4.51 | 90 to 100 | 80 to 89 | 80 to 89 | 90 to 100
